Experimental data reported in patent US9233927B2 (TEVA PHARMACEUTICAL INDUSTRIES, LTD., priority 2013, dated 2016).
Where two headings read alike, the source gives them in different places.

What was measured:
[1] = Particle size distribution by Malvern laser diffraction (Mastersizer S); assay type: physicochemical; settings: for D(0.9), PSD by Malvern / d(0.1), PSD by Malvern / d(0.5), PSD by Malvern: Modified Pilot Scale, 2.5 kg batch
Protocol: The particle size distributions were measured by Malvern Laser Diffraction, using the Mastersizer S model. Laser diffraction relies on the fact that diffraction angle of light is inversely proportional to particle size. Properties of particles are measured and interpreted as measurements of a sphere (a sphere being the only shape that can be described by one unique number). In addition, laser diffraction calculates a particle size distribution based around volume terms, thus eliminating particle count from the determination of particle size. The Mastersizer S model measures particles using a single technique and a single range setting.
D(0.1) is the particle size, in microns, below which 10% by volume distribution of the population is found. D(0.5) is the particle size, in microns, below which 50% by volume distribution of the population is found. D(0.9) is the particle size, in microns, below which 90% by volume distribution of the population is found.

[2] = prior art U.S. Pat. No. 7,884,208; cited from earlier work
[3] = prior art U.S. Pat. No. 7,884,208, cited from earlier work
[4] = system: acute experimental autoimmune encephalomyelitis (aEAE) model; settings: U.S. Pat. No. 6,077,851; cited from earlier work
[5] = Production scale crystallization
[6] = Laboratory scale crystallization, 25 g crude
[7] = starting material of pilot scale process

Q: Which “PSD D(0.1)” value [1, 5] does the source give for `CCN(C(=O)c1c([O-])c2c(Cl)cccc2n(C)c1=O)c1ccccc1.[Na+]` [Batch C] here?
A: The value was 4.1 μm.

Q: What about the “PSD D(0.5)” value [1, 5] of the same compound?
A: The value was 14.0 μm.

Q: What about the “PSD D(0.9)” value [1, 5] of the same compound?
A: Its value is 32.0 μm.

Q: For `CCN(C(=O)c1c([O-])c2c(Cl)cccc2n(C)c1=O)c1ccccc1.[Na+]` [Batch E], which “PSD D(0.1)” value [1, 5] is on record?
A: The value was 2.5 μm.

Q: And the “PSD D(0.5)” value [1, 5]?
A: The value was 9.5 μm.

Q: What about the “PSD D(0.9)” value [1, 5] of the same compound?
A: The value was 21.0 μm.

Q: With `CCN(C(=O)c1c([O-])c2c(Cl)cccc2n(C)c1=O)c1ccccc1.[Na+]` [Example 13 of U.S. Pat. No. 7,884,208] as the compound, how does the “Tapped Density (in words)” value [2] read?
A: Its value is “high”.

Q: With `CCN(C(=O)c1c([O-])c2c(Cl)cccc2n(C)c1=O)c1ccccc1.[Na+]` [Example 14 of U.S. Pat. No. 7,884,208] as the compound, how does the “Tapped Density (in words)” value [2] read?
A: The value was “undesired”.

Q: And the “size of 10% or more of the total amount by volume of the particles” value [3]?
A: The value was “less than 5 microns”.

Q: Which results are given for `CCN(C(=O)c1c([O-])c2c(Cl)cccc2n(C)c1=O)c1ccccc1.[Na+]` [Example 15 from U.S. Pat. No. 7,884,208]?
A: D(0.9), PSD by Malvern ([3]; Laboratory Scale 25 g batch): 51.8 um; d(0.1), PSD by Malvern ([3]; Laboratory Scale 25 g batch): 6.1 um; d(0.5), PSD by Malvern ([3]; Laboratory Scale 25 g batch): 21.2 um

Q: For `CCN(C(=O)c1c([O-])c2c(Cl)cccc2n(C)c1=O)c1ccccc1.[Na+]` [Laboratory Scale Batch A], which “PSD D(0.1)” value [1, 6] is on record?
A: Its value is 2.3 μm.

Q: Which “PSD D(0.1)” value [1, 6] does the source give for `CCN(C(=O)c1c([O-])c2c(Cl)cccc2n(C)c1=O)c1ccccc1.[Na+]` [Laboratory Scale Batch B] here?
A: The value was 2.6 μm.

Q: With `CCN(C(=O)c1c(O)c2c(Cl)cccc2n(C)c1=O)c1ccccc1` [Laquinimod, N-ethyl-N-phenyl-1,2,-dihydro-4-hydroxy-5-chloro-1-methyl-2-oxoquinoline-3-carboxamide] as the compound, how does the “effectiveness in aEAE model” value [4] read?
A: The value was “effective”.

Q: With `CCN(C(=O)c1c([O-])c2c(Cl)cccc2n(C)c1=O)c1ccccc1.[Na+]` [Pilot Scale Batch A] as the compound, how does the “D(0.9), PSD by Malvern” value [1] read?
A: The value was 33.8 um.

Q: What about the “d(0.1), PSD by Malvern” value [1] of the same compound?
A: Its value is 3.3 um.

Q: What about the “d(0.5), PSD by Malvern” value [1] of the same compound?
A: Its value is 12.9 um.

Q: For `CCN(C(=O)c1c([O-])c2c(Cl)cccc2n(C)c1=O)c1ccccc1.[Na+]` [Pilot Scale Batch B], which “D(0.9), PSD by Malvern” value [1] is on record?
A: The value was 33.9 um.

Q: And the “d(0.1), PSD by Malvern” value [1]?
A: Its value is 4.1 um.

Q: What about the “d(0.5), PSD by Malvern” value [1] of the same compound?
A: Its value is 13.5 um.

Q: With `CCN(C(=O)c1c([O-])c2c(Cl)cccc2n(C)c1=O)c1ccccc1.[Na+]` [crude laquinimod sodium] as the compound, how does the “d(0.1)” value [1, 7] read?
A: The value was 1-2 μ.

Q: What about the “d(0.5)” value [1, 7] of the same compound?
A: The value was 5-11 μ.

Q: And the “d(0.9)” value [1, 7]?
A: Its value is 20-35 μ.
